Molecular target: recombinant human PAI-1 (Homo sapiens, UniProt P05121)
Assay: PAI-1 inhibitory activity, Test Method A (tPA fluorogenic substrate, Tris buffer pH8.0, 37 C)
Type: biochemical
Settings: 25 μM test compound; Test Method A

Chain of recombinant human PAI-1 (P05121 24-402): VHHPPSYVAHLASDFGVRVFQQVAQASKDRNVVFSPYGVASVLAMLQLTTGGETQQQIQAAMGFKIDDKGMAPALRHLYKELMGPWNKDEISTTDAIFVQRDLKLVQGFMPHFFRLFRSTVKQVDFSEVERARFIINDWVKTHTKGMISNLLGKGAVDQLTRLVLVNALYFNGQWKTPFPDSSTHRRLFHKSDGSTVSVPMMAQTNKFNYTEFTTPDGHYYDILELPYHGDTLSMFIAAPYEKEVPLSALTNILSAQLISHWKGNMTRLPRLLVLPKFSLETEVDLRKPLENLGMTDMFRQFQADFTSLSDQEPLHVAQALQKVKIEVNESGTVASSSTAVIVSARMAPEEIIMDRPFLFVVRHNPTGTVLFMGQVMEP

Row | SMILES | Inhibitory Ratio at 25 μM (%)
1 | O=C1SC(=Cc2ccc(O)c(-c3ccc(O)c(O)c3)c2)C(=O)N1Cc1ccc(Cl)c(Cl)c1 [compound 445] | >99%
2 | O=C(Nc1cc(C(F)(F)F)ccc1Cl)c1cc(C=C2SC(=O)N(Cc3ccc(Cl)c(Cl)c3)C2=O)cc(O)c1O [compound 469] | >99%
3 | O=C(Nc1cc(Cl)ccc1C(=O)O)c1cc(C=C2SC(=O)N(Cc3ccc(Cl)c(Cl)c3)C2=O)ccc1O [compound 458] | >99%
4 | COc1cccc(NC(=O)c2cc(C=C3SC(=O)N(Cc4ccc(Cl)c(Cl)c4)C3=O)ccc2O)c1OC [compound 434, 5-[4-hydroxy-3-(2,3-dimethoxyphenylcarbamoyl)benzylidene]-3-(3,4-dichlorobenzyl)thiazolidine-2,4-dione] | >99%
5 | COC(=O)c1ccc(CN2C(=O)SC(=Cc3ccc(O)c(C(=O)Nc4ccc(Cl)c(Cl)c4)c3)C2=O)cc1 [compound 415, 5-[4-hydroxy-3-(3,4-dichlorophenylcarbamoyl)benzylidene]-3-(4-methoxycarbonylbenzyl)thiazolidine-2,4-dione] | >99%
6 | CC(C)C1=NN(c2ccc(Cl)c(Cl)c2)C(=O)C1=Cc1cc(Oc2ccc(Br)cc2)ccc1[N+](=O)[O-] [Compound No. 562, 4-[2-Nitro-5-(4-bromophenoxy)benzylidene]-1-(3,4-dichlorophenyl)-3-isopropyl-2-pyrazolin-5-one] | >99%
7 | CC(C)C1=NN(c2cc(Cl)cc(Cl)c2)C(=O)C1=Cc1ccc(O)cc1O [compound 505] | 93%
8 | COc1ccc(OC)c(NC(=O)c2cc(C=C3SC(=O)N(Cc4ccc(Cl)c(Cl)c4)C3=O)ccc2O)c1 [compound 471] | 96%
9 | Cc1ccc(O)c(NC(=O)c2cc(C=C3SC(=O)N(Cc4ccc(Cl)c(Cl)c4)C3=O)ccc2O)c1 [compound 457] | >99%
10 | O=C(O)c1c(O)cc(C=C2SC(=O)N(Cc3ccc(Cl)c(Cl)c3)C2=O)cc1O [compound 446] | >99%
11 | O=C1SC(=Cc2c[nH]c3ccccc23)C(=O)N1Cc1ccc(Cl)c(Cl)c1 [compound 410, 5-(indol-3-ylmethylene)-3-(3,4-dichlorobenzyl)thiazolidine-2,4-dione] | 36%
12 | Cc1cc(C=C2SC(=O)N(Cc3ccc(Cl)c(Cl)c3)C2=O)cc(C(=O)O)c1O [compound 390, 5-(3-Methyl-4-hydroxy-5-carboxybenzylidene)-3-(3,4-dichlorobenzyl)thiazolidine-2,4-dione] | >99%
13 | COc1ccc(C)cc1NC(=O)c1cc(C=C2SC(=O)N(Cc3ccc(Cl)c(Cl)c3)C2=O)ccc1O [compound 452, 5-[4-hydroxy-3-(2-methoxy-5-methylphenylcarbamoyl)-benzylidene]-3-(3,4-dichlorobenzyl)thiazolidine-2,4-dione] | >99%
14 | COC(=O)c1ccc(C(=O)n2cc(C=C3SC(=O)N(Cc4ccc(Cl)c(Cl)c4)C3=O)c3ccccc32)cc1 [compound 427] | 85%
15 | CC(C)C1=NN(c2cc(Cl)cc(Cl)c2)C(=O)C1=Cc1cc(O)c(O)cc1Br [compound 556, 4-(2-Bromo-4,5-dihydroxybenzylidene)-1-(3,5-dichlorophenyl)-3-isopropyl-2-pyrazolin-5-one] | >99%
16 | O=C(Nc1cc(C(F)(F)F)ccc1[N+](=O)[O-])c1cc(C=C2SC(=O)N(Cc3ccc(Cl)c(Cl)c3)C2=O)ccc1O [compound 466] | >99%
17 | COc1ccc(C)c(NC(=O)c2cc(C=C3SC(=O)N(Cc4ccc(Cl)c(Cl)c4)C3=O)ccc2O)c1 [compound 450, 5-[4-hydroxy-3-(2-methyl-5-methoxyphenylcarbamoyl)-benzylidene]-3-(3,4-dichlorobenzyl)thiazolidine-2,4-dione] | 87%
18 | CCOC1=NN(c2ccc([N+](=O)[O-])cc2)C(=O)C1=Cc1cc(C=Cc2ccccc2)ccc1OC [compound 537] | 66%
19 | O=C(Nc1ccc(O)c(O)c1)c1cc(C=C2SC(=O)N(CCc3ccc(Cl)cc3)C2=O)ccc1O [compound 377] | 81%
20 | CC(C)C1=NN(c2ccc(C=Cc3ccccn3)cc2)C(=O)C1=Cc1cc(O)c(O)cc1O [compound 545] | 74%
21 | O=C1C(=Cc2cc(C=Cc3ccccc3)ccc2O)C(c2ccc(O)cc2)=NN1c1ccc(Cl)cc1 [compound 530] | >99%
22 | CCOC1=NN(c2ccc([N+](=O)[O-])cc2)C(=O)C1=Cc1c(Br)ccc(O)c1O [compound 551] | 75%

Same assay, conditions: test compound 25 μM; Test Method A

Row | SMILES | Inhibitory Ratio at 25 μM (%)
23 | CC1=NN(c2cccc(C(=O)O)c2)C(=O)C1=Cc1ccc(-c2cccc([N+](=O)[O-])c2)o1 [compound 193] | 32%
24 | O=C1SC(=Cc2ccc(O)c(O)c2)C(=O)N1Cc1cccc([N+](=O)[O-])c1 [compound 48, 5-(3,4-Dihydroxybenzylidene)-3-(3-nitrobenzyl)thiazolidine-2,4-dione] | 67%
25 | COC(=O)c1cccc(N2N=C(C(C)C)C(=Cc3ccc(Br)o3)C2=O)c1 [compound 205] | 35%
26 | O=C1SC(=Cc2cccc(O)c2O)C(=O)N1Cc1cc(Br)cc(Br)c1 [compound 47] | >99%
27 | O=C1C(=Cc2cc(O)c(O)cc2O)C(C(F)(F)F)=NN1c1cc(Cl)cc(Cl)c1 [compound 151] | >99%
28 | O=C1C(=Cc2ccc(O)c(O)c2)C(c2ccccc2)=NN1c1ccc(Cl)c(Cl)c1 [compound 221] | >99%
29 | O=C1SC(=Cc2ccc(O)c(O)c2)C(=O)N1Cc1cc(Cl)cc(Cl)c1 [compound 12] | >99%
30 | O=C(O)c1cccc(N2N=C(C(F)(F)F)C(=Cc3ccc(-c4cc(Cl)cc(Cl)c4)o3)C2=O)c1 [compound 176] | 65%
31 | COC(=O)c1cccc(N2N=C(c3ccccc3)C(=Cc3ccc(Br)o3)C2=O)c1 [compound 194] | 84%
32 | CC1=NN(c2cccc(C(=O)O)c2)C(=O)C1=Cc1ccc(-c2cc(Cl)cc(Cl)c2)o1 [compound 191] | 59%
33 | O=C1C(=Cc2ccc(-c3cc(Cl)cc(Cl)c3)o2)C(c2ccccc2)=NN1c1cccc([N+](=O)[O-])c1 [compound 167, 4-{[5-(3,5-Dichlorophenyl)furan-2-yl]methylene}-1-(3-nitrophenyl)-3-phenyl-2-pyrazolin-5-one] | 50%
34 | Cc1cc(C)cc(CN2C(=O)SC(=Cc3ccc(O)c(O)c3)C2=O)c1 [compound 27] | >99%
35 | O=C1SC(=Cc2cccc(O)c2O)C(=O)N1Cc1ccc(-c2ccccc2)cc1 [compound 20, 5-(2,3-Dihydroxybenzylidene)-3-(4-phenylbenzyl)thiazolidine-2,4-dione] | >99%
36 | COC(=O)c1cccc(N2N=C(C(C)(C)C)C(=Cc3ccc(Cl)c(Cl)c3)C2=O)c1 [compound 197] | 32%
